Data reported in article PMC3121873, “Insertion of an Esterase Gene into a Specific Locust Pathogen (Metarhizium acridum) Enables It to Infect Caterpillars” (PLoS Pathogens, 2011).

Target: T1, MEST1 (Metarhizium robertsii, UniProt E9ETD4)
T1 construct: gene MAA_03283; full-length cDNA (395 aa, 42244 Da, no signal peptide) in pET28a, His6-tagged, 47 kDa band; E. coli Rosetta (DE3) crude extract, not purified
Experiment: spectrophotometric p-nitrophenol release
Format: biochemical
Conditions: 50 mM potassium phosphate pH 8, 37 °C; crude E. coli extract versus empty-vector extract

T1 sequence (E9ETD4 entry or part of it): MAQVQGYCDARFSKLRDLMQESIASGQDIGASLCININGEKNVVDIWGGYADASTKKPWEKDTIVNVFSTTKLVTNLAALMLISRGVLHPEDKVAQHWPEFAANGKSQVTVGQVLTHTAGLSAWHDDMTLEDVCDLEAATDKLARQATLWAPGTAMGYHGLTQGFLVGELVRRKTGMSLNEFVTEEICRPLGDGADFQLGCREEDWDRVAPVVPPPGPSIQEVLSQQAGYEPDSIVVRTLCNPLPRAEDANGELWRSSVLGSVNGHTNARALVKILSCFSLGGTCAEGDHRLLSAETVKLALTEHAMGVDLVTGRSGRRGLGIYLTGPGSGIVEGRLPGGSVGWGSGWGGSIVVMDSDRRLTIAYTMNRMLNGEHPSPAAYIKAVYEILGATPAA

For `CCCC(=O)Oc1ccc([N+](=O)[O-])cc1` [p-NP butyrate], the spectrophotometric p-nitrophenol release was “highest activity against p-NP propionate (C3), p-NP butyrate (C4) and p-NP caproate (C6)”.
In the case of `CCC(=O)Oc1ccc([N+](=O)[O-])cc1` [p-NP propionate], the spectrophotometric p-nitrophenol release is reported as “highest activity against p-NP propionate (C3), p-NP butyrate (C4) and p-NP caproate (C6)”.
